The values that follow come from PMC9609996, “SAR Study and Molecular Mechanism Investigation of Novel Naphthoquinone-furan-2-cyanoacryloyl Hybrids with Antitumor Activity” (Pharmaceutics, 2022).

In test [1] the test system is various cancer cell lines. Also noted: method as in PMID 23651330. The note with it: read-out: IC50 against various cancer cell lines; cited from earlier work.
The test system of test [2] is four cancer cell lines (HeLa, PC3, A549, and HCT116). As to the kind of experiment: CCK-8 inhibition rates over four cancer cell lines. The settings on record: Homo sapiens. It is filed as cell-based. Here is the method:
First, the inhibition rates at 20 μM for all newly synthesized compounds were evaluated on four cancer cell lines (HeLa, PC3, A549, and HCT116) by a CCK-8 assay. […] A variety of aliphatic amine substituents were well tolerated (4e, 4f, 5c, and 8f).
(§1) Human cervical cancer HeLa, human prostate cancer PC3, human colonic carcinoma HCT116, human lung carcinoma A549, human breast cancer MDA-MB-231, mouse melanoma B16, human ovarian cancer SKOV3, human hepatoma Hep3B, and human liver L02 cells were purchased from the Cell Bank of Shanghai Institute of Biochemistry and Cell Biology, Chinese Academy of Sciences (Shanghai, China). The HeLa, A549, B16, PC3, MDA-MB-231, HCT116, and L02 cells were cultured in Dulbecco’s modified Eagle medium (DMEM, Gibco Inc.; Gaithersburg, MD, USA). All cultures were supplied with 10% fetal bovine serum (FBS; YHSM, Beijing, China), 100 IU/mL of penicillin, and 100 μg/mL of streptomycin, and cells were incubated at 37 °C in an atmosphere of 5% CO2.
(§2) A CCK-8 kit (MCE, USA) was used to perform a CCK-8 assay. Cells were plated and grown in the 96-well plates for the indicated period (48 h) in the incubator, followed by an incubation with the CCK-8 solutions for 1–4 h. Subsequently, the absorbance (450 nm) was measured by a microplate reader. The median inhibitory concentration (IC50) was determined from the dose–response curve. Experiments were performed in a triplicate.

In test [3] the test system is A549. Briefly: CCK-8 anti-proliferation assay, A549. The settings on record: Homo sapiens, mean ± SD; for inhibition at 20 µM: A549, 20 μM, read-out: Inhibition Rate (%) at 20 μM A549. Type of test: cell-based, human. The procedure:
as §1, §2
(Tetrazolium assays rely on reduction of a dye to a coloured formazan, in cell work by metabolically active cells.)

Test [4] concerns PC3. Briefly: CCK-8 anti-proliferation assay, PC3. Type of test: cell-based, human. The settings on record: Homo sapiens, mean ± SD; for inhibition at 20 µM: PC-3, 20 μM, read-out: Inhibition Rate (%) at 20 μM PC3. Here is the method: as §1, §2
Test [5] relates to HCT116. As to the kind of experiment: CCK-8 anti-proliferation assay, HCT116. Type of test: cell-based, human. The settings on record: Homo sapiens, mean ± SD; for inhibition at 20 µM: HCT-116, 20 μM, read-out: Inhibition Rate (%) at 20 μM HCT116. Here is the method: as §1, §2
In test [6] the test system is HeLa. Briefly: CCK-8 anti-proliferation assay, HeLa. Type of test: cell-based, human. The note with it: Homo sapiens, mean ± SD; for inhibition at 20 µM: read-out: Inhibition Rate (%) at 20 μM HeLa. The procedure:
as §1, §2

Test [7] has as its system B16. As to the kind of experiment: CCK-8 anti-proliferation assay, B16. It is filed as cell-based. The note with it: Mus musculus, B16, 48 h, B16 mouse melanoma, mean ± SD. Here is the method:
as §1, §2

Test [8] has as its system Hep3B. As to the kind of experiment: CCK-8 anti-proliferation assay, Hep3B. It is filed as cell-based, human. The note with it: Homo sapiens, 48 h, mean ± SD. The procedure: as §1, §2
In test [9] the test system is MDA-MB-231. As to the kind of experiment: CCK-8 anti-proliferation assay, MDA-MB-231. It is filed as cell-based, human. The settings on record: Homo sapiens, MDA-MB-231, 48 h, mean ± SD. Here is the method: as §1, §2
Test [10] deals with L02 cells. As to the kind of experiment: CCK-8 assay on normal cells, L02. It is filed as cell-based. The note with it: L02 human normal hepatocytes, 48 h, mean ± SD. Here is the method:
as §1, §2

The subject of test [11] is SKOV3. As to the kind of experiment: CCK-8 anti-proliferation assay, SKOV3. Type of test: cell-based. The settings on record: Homo sapiens, SK-OV-3, 48 h, mean ± SD. The procedure: as §1, §2
Where [12] appears, read: one or two of the four cell lines, read-out: inhibition rates against one or two types of tumor cell lines.
Where [13] appears, read: HeLa, PC3, A549, HCT116, CCK-8, read-out: inhibition rate, span over the four cancer cell lines.

Read-outs that look alike come from different tables or passages of the source.

As usually defined, the IC50 is the concentration at which inhibition is half-maximal. Consider `NS(=O)(=O)c1cccc2c1C(=O)C=C(Nc1cccnc1)C2=O` [Ly-5], for which, in [1], the IC50 was 0.5 to 1.4 µM.

Broadly, the inhibition is the drop in the measured response relative to a control, in per cent. As for `COc1cc(N2CCC(N(C)C)CC2)ccc1NC(=O)c1ccc(-c2cc(OC)c3ccccc3c2OC)o1` [Compound 8i, 5-(1,4-Dimethoxynaphthalen-2-yl)-N-(4-(4-(dimethylamino)piperidin-1-yl)-2-methoxyphenyl)furan-2-carboxamide], the inhibition at 20 µM in test [2] (setting [12]) was greater than 50%; in [3], 31.67 ± 0.07%; in test [4] it was 25.11 ± 0.05%; in test [5], 47.78 ± 0.19%; in test [6] it was 55.62 ± 0.12%.

In the case of `C[C@H](NC(=O)/C(C#N)=C/c1cccc(Br)n1)c1ccccc1` [WP1066, reference compound], the IC50 in test [7] stood at 24.1 ± 0.7 µM; in test [8], 4.36 ± 0.05 µM; in [3] (A549, 48 h, 48 h) it was 7.55 ± 0.06 µM; in [4] (PC-3, 48 h, 48 h), 1.2 ± 0.03 µM; in test [5] (HCT-116, 48 h), 7.22 ± 3.14 µM; in [9], 8.17 ± 0.16 µM. Further, the IC50 in test [10] stood at 3.45 ± 0.41 µM; in test [6] (48 h), 7.06 ± 1.17 µM; in test [11] it was 4.66 ± 0.13 µM.

For the compound `COc1cc(-c2ccc(/C=C(\C#N)C(=O)NC3CC(C)(C)NC(C)(C)C3)o2)c(OC)c2ccccc12` [Compound 4e, (E)-2-cyano-3-(5-(1,4-dimethoxynaphthalen-2-yl)furan-2-yl)-N-(2,2,6,6-tetramethylpiperidin-4-yl)acrylamide], the inhibition at 20 µM is greater than 50% in [2] (setting [12]); 59.49 ± 0.34% in [3]; 15.8 ± 0.33% in [4]; 40.53 ± 0.03% in [5]; 59.1 ± 0.21% in [6].

Turning to `COc1cc(-c2ccc(/C=C(\C#N)C(=O)NCCN3CCOCC3)o2)c(OC)c2ccccc12` [Compound 4c, (E)-2-cyano-3-(5-(1,4-dimethoxynaphthalen-2-yl)furan-2-yl)-N-(2-morpholinoethyl)acrylamide], the inhibition at 20 µM in test [2] (setting [13]) is 8.99 to 24.2%; in [3], 11.25 ± 0.05%; in test [4] it was 8.99 ± 0.09%; in test [5], 18.78 ± 0.04%; in test [6], 24.23 ± 0.01%.

Regarding `CC(NC(=O)c1ccc(C2=CC(=O)c3ccccc3C2=O)o1)c1ccccc1` (stereo not shown) [Compound 9b, 5-(1,4-Dioxo-1,4-dihydronaphthalen-2-yl)-N-(1-phenylethyl)furan-2-carboxamide], the inhibition at 20 µM in [3] amounted to 8.8 ± 0.04%; in test [4], 12.82 ± 0.01%; in test [5] it was 7.22 ± 0.34%; in test [6], 18.65 ± 0.16%.

With `COc1cc(-c2ccc(C(=O)NCc3cc(C(F)(F)F)ccc3F)o2)c(OC)c2ccccc12` [Compound 8d, 5-(1,4-Dimethoxynaphthalen-2-yl)-N-(2-fluoro-5-(trifluoromethyl)benzyl)furan-2-carboxamide], the inhibition at 20 µM in [3] is 19.35 ± 0.07%; in [4] it was 22.45 ± 0.05%; in test [5], 14.5 ± 0.24%; in [6], 22.7 ± 0.27%.

On to `COc1cc(-c2ccc(C(=O)Nc3cccc(N4CCN(C)CC4)c3)o2)c(OC)c2ccccc12` [Compound 8e, 5-(1,4-Dimethoxynaphthalen-2-yl)-N-(3-(4-methylpiperazin-1-yl)phenyl)furan-2-carboxamide], for which the inhibition at 20 µM in test [3] came out at 14.5 ± 0.25%; in test [4], 11.5 ± 0.17%; in [5], 7.7 ± 0.27%; in test [6] it was 40.58 ± 0.36%.

`COc1cc(-c2ccc(/C=C(\C#N)C(=O)Nc3ccccc3)o2)c(OC)c2ccccc12` [Compound 4h, (E)-2-cyano-3-(5-(1,4-dimethoxynaphthalen-2-yl)furan-2-yl)-N-phenylacrylamide]: the inhibition at 20 µM in test [2] (setting [13]) was 0.25 to 32.4%; in test [3], 0.25 ± 0.13%; in test [4] it was 19.53 ± 0.17%; in test [5] it was 11.5 ± 0.14%; in test [6], 9.49 ± 0.16%.

For the compound `O=C(NCCC(=O)N1CCOCC1)c1ccc(C2=CC(=O)c3ccccc3C2=O)o1` [Compound 9c, 5-(1,4-Dioxo-1,4-dihydronaphthalen-2-yl)-N-(3-morpholino-3-oxopropyl)furan-2-carboxamide], the inhibition at 20 µM is 15.1 ± 0.31% in test [3], 1.45 ± 0.86% in test [4], 37.21 ± 0.08% in test [5] and 5.91 ± 0.29% in [6].
